Data on 26 compounds can be found in ChEMBL document CHEMBL1201862, “PubChem BioAssay data set” (2004).

Holding throughout (experiment): growth of human tumour cells (NCI), 48 h
The subject of assay [1] is DLD-1.
Assay [2] concerns DMS-273.
The test system of assay [3] is HOP-18.
The subject of assay [4] is KM-20L2.
The subject of assay [5] is M19-MEL.
For assay [6], the system named is SNB-78.
The subject of assay [7] is XF498.
In assay [8] the test system is DMS-114.
The test system of assay [9] is RXF 631.

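Each compound was tested at five concentrations against cells in 96-well plates for 48 hours. Here, GI50 denotes the concentration required for 50% inhibition of growth.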 The source made the active and inactive calls. Rule as the data show it: active = GI50 up to about 1.1 µM and inactive = higher. Some results are limits rather than exact numbers.

Consider `Nc1nc(Cl)cc(NCCCCCCCCNc2cc(Cl)nc(N)n2)n1`, for which the GI50 in assay [1] is 10.2 µM (inactive); in assay [2] it was 8.79 µM (inactive); in assay [3], 27.1 µM (inactive); in assay [4], 9.48 µM (inactive); in [5], 16 µM (inactive); in assay [6], 71.6 µM (inactive). Further, the GI50 in assay [7] was 1.64 µM (inactive).
Regarding `COc1ccc2c(c1)C(=O)C1CC(=O)CCC21` (configuration not stated), the GI50 in assay [1], in assay [8], in [2], in assay [3], in assay [4] and in assay [5] was > 100 µM (inactive) in each case. Further, the GI50 in assay [9] and in assay [6] was > 100 µM (inactive) each time.
As for `O=C(O)c1c([N+](=O)[O-])cc(C(F)(F)F)cc1[N+](=O)[O-]`, the GI50 was > 100 µM (inactive) in assay [2]; > 100 µM (inactive) in assay [4]; > 100 µM (inactive) in assay [5]; > 100 µM (inactive) in [9]; > 100 µM (inactive) in assay [6]; 35.2 µM (inactive) in assay [7].
For the compound `O=C1O[C@H](c2ccccc2)[C@@H]2CC3(CCN12)OCCO3`, the GI50 in assay [2], in assay [4], in assay [9] and in assay [7] was > 100 µM (inactive) in each case.
Turning to `CC(CCCOC(c1ccccc1)(c1ccccc1)c1ccccc1)OC(=O)Nc1ccccc1` (configuration not stated), the GI50 is 13.7 µM (inactive) in [1]; 12.1 µM (inactive) in assay [8]; 15.5 µM (inactive) in [2]; 5.12 µM (inactive) in [4]; 14.6 µM (inactive) in [5]; 16.4 µM (inactive) in [6]. Further, the GI50 in assay [7] was 14.9 µM (inactive).
In the case of `CCNC(=O)COc1ccc(Cl)c(C)c1`, the GI50 in assay [1], in assay [8], in assay [2], in [3], in assay [4] and in [5] was > 100 µM (inactive) each time. In assay [6], the GI50 was > 100 µM (inactive).
In the case of `CCCCCCCCOCC(O)COC` (configuration not stated), the GI50 in [1], in [8], in [2], in assay [3] and in assay [5] was > 100 µM (inactive) in each case.
Turning to `COc1cc2cnc3c4cc(OC(C)C)c(OC)cc4ccc3c2cc1OC`, the GI50 in assay [1], in assay [8], in assay [3], in [4], in assay [5] and in assay [7] was > 100 µM (inactive) each time.
As to `Cn1ncc2ccc3[nH]c4ccccc4c(=O)c3c21`, the GI50 in assay [1] was 27.5 µM (inactive); in assay [8] it was 35.8 µM (inactive); in assay [2], 28.6 µM (inactive); in assay [3], 58.5 µM (inactive); in assay [4], 33.8 µM (inactive); in [5] it was 23.2 µM (inactive). Also, the figures for the GI50 in [9] and in assay [6] were 21.8 µM (inactive) and 27.7 µM (inactive), respectively.
In the case of `O=C(/C(=C/c1ccc(Cl)cc1)c1ccccc1)c1ccccc1`, the GI50 in [1] was 15.2 µM (inactive); in assay [8] it was 16.7 µM (inactive); in assay [3], 26.5 µM (inactive); in assay [6] it was 19.9 µM (inactive); in [7] it was 18.5 µM (inactive).
As for `CC(=O)N1[C@H](C(=O)O)CS[C@H]1c1ccc(F)cc1`, the GI50 in [8], in assay [3], in assay [5], in assay [9] and in assay [6] was > 100 µM (inactive) each time.
Regarding `CC1(c2cccc(N)c2)C2C(=O)NC(=O)C1C(=O)NC2=O` (configuration not stated), the GI50 in assay [1] was 34.7 µM (inactive); in assay [8], 27.5 µM (inactive); in [2], 25.5 µM (inactive); in [4] it was 27.6 µM (inactive); in assay [5], 37.2 µM (inactive); in [9], > 100 µM (inactive). Besides, the GI50 in assay [6] is 51.2 µM (inactive); in assay [7], 21.8 µM (inactive).
As for `O=C1OC(=O)C23CSCC12C1C=CC3O1` (configuration not stated), the GI50 in assay [1], in assay [8], in assay [2], in assay [4], in assay [5] and in assay [7] was > 100 µM (inactive) in each case.
`N#CC1CC2(C1)OCCS2` (configuration not stated): the GI50 in assay [1], in assay [2], in assay [4] and in [6] was > 100 µM (inactive) in each case.
As for `CCC1(C(=O)OC)CCc2c(OC)ccc(OC)c2C1=O` (configuration not stated), the GI50 in assay [1], in assay [8], in assay [2], in assay [3], in assay [4] and in [5] was > 100 µM (inactive) throughout. Further, the GI50 in assay [9], in [6] and in assay [7] was > 100 µM (inactive) in each case.
As to `C/C(CCn1[nH]c(=O)ccc1=O)=N\NC(=O)C(N)=O`, the GI50 in [1], in assay [8], in assay [2], in [3], in assay [4] and in assay [5] was > 100 µM (inactive) throughout. Also, the GI50 in assay [6] and in [7] was > 100 µM (inactive) each time.
As to `Cc1nc(Nc2ccc([N+](=O)[O-])cc2)sc1C(/C=C/c1ccc(N(C)C)cc1)=N/NC(=O)c1ccccc1`, the GI50 was 55 µM (inactive) in assay [1]; 29 µM (inactive) in [8]; 72.8 µM (inactive) in assay [3]; 36.3 µM (inactive) in assay [4]; 61.1 µM (inactive) in [5]; 32.6 µM (inactive) in [9]. The GI50 is 41.6 µM (inactive) in assay [6] and > 100 µM (inactive) in assay [7].
As for `Cc1c(Cl)cccc1N1C(=O)C(Cl)=C(Cl)C1=O`, the GI50 in [1] is > 66.8 µM (inactive); in assay [8] it was > 100 µM (inactive); in [2] it was > 100 µM (inactive); in assay [3] it was > 100 µM (inactive); in [4] it was > 100 µM (inactive); in [5], > 100 µM (inactive). The GI50 in assay [6] is > 100 µM (inactive); in [7], 66.7 µM (inactive).
Regarding `COc1ccc(/C(C)=N/NC(N)=S)c(OC)c1`, the GI50 in assay [1] is > 100 µM (inactive); in [8] it was 97.1 µM (inactive); in assay [3], > 100 µM (inactive); in assay [4], > 100 µM (inactive); in assay [5] it was > 100 µM (inactive); in assay [9], > 100 µM (inactive). Moreover, the GI50 in assay [6] and in assay [7] was > 100 µM (inactive) in each case.
Turning to `CCOC(=O)c1cn(Cc2ccccc2)c(=O)n1Cc1ccccc1`, the GI50 is > 100 µM (inactive) in assay [1]; 94 µM (inactive) in assay [8]; > 100 µM (inactive) in [2]; > 100 µM (inactive) in assay [3]; > 100 µM (inactive) in assay [4]; > 100 µM (inactive) in assay [5]. Moreover, the GI50 in [9] was > 100 µM (inactive); in [6], > 100 µM (inactive); in [7], 25.8 µM (inactive).
`O=C(O)C1C2CC3CC2CC31` (configuration not stated): the GI50 in assay [8], in assay [2], in assay [9], in [6] and in [7] was > 100 µM (inactive) each time.
Take `Clc1ccccc1C1N2CCCCC2[C@@H]2c3[nH]c4ccccc4c3CCN12` (some centres not stated): the GI50 was 18.9 µM (inactive) in [1]; 20 µM (inactive) in assay [8]; 27.4 µM (inactive) in [2]; 42 µM (inactive) in [3]; 18.6 µM (inactive) in [4]; 14.7 µM (inactive) in assay [5]. Also, the GI50 in assay [6] is 25.4 µM (inactive); in [7], 19.4 µM (inactive).
In the case of `CC(C)(O)[C@@H]1CC[C@@]2(C)CCCC(O)C2(O)C1` (some centres not stated), the GI50 in assay [1], in assay [8], in [2], in assay [3], in assay [4] and in assay [5] was > 100 µM (inactive) throughout. The GI50 in assay [9] and in assay [7] was > 100 µM (inactive) each time.
Take `CCOC(=O)C[C@@]12CCCNC1(C)CCc1ccccc12` (some centres not stated): the GI50 in assay [1] was > 100 µM (inactive); in [8], > 100 µM (inactive); in [2], > 100 µM (inactive); in assay [3] it was 63.2 µM (inactive); in assay [4], > 100 µM (inactive); in assay [5] it was > 100 µM (inactive). Further, in [7], the GI50 is > 100 µM (inactive).
For `C[C@@H]1C[C@@H]([C@H](O)CC2CC(=O)NC(=O)C2)C(=O)[C@@H](C)C1` [CYCLOHEXIMIDE], the GI50 was 0.0405 µM (active) in assay [1]; 0.102 µM (active) in [8]; 0.0557 µM (active) in [2]; 0.249 µM (active) in assay [3]; 0.0705 µM (active) in assay [4]; 0.0607 µM (active) in assay [5]. In addition, the GI50 in [9] is 0.0248 µM (active); in assay [6] it was 0.0875 µM (active); in [7], 0.0348 µM (active).
On to `Nc1ccc(S(=O)(=O)Nc2cnc3ccccc3n2)cc1` [SULFAQUINOXALINE], for which the GI50 in assay [1], in [8], in [2], in assay [3], in assay [4] and in [5] was > 100 µM (inactive) in each case. The GI50 in [9], in assay [6] and in assay [7] was > 100 µM (inactive) each time.
